Patent US9914707B2, “Naphthylamide compound, preparation method and use thereof” (SHANGHAI INSTITUTE OF MATERIA MEDICA, CHINESE ACADEMY OF …, priority 2014, dated 2018)

System: VEGF-induced human umbilical vein endothelial cells (HUVEC) proliferation
Assay: VEGF-induced human umbilical vein endothelial cells (HUVEC) proliferation (SRB)
Format: cell-based
Conditions: for cell activity compared with positive control compound ABT869: VEGF-induced HUVEC proliferation
Method: 5000-8000 primary HUVEC cells before 5-15 doublings were seeded to each well of 96-well plate and each well contained 90 μl. The cells were cultured overnight and then starved with 90 μl/well serum-free basal culture medium for 24 h. Then 10 μl different concentration of compound was added to each well. Five concentrations were set and each concentration had 3 wells. After 2 h, 100 ng/mL of VEGF growth-stimulating factor was added. After 48 h, the medium was discarded, the cells were fixed with pre-cooled 10% TCA at 4° C. for 1 h, then washed with distilled water five times and dried in air. Then 100 μl of 4 mg/ml of sulforodamine B (SRB) solution prepared from 1% acetic acid was added to each well to dye 15 minutes at room temperature. The staining solution was discarded and each well was washed with 1% acetic acid five times and then dried in air. Finally, each well was added with 150 μl Tris-HCl solution (10 mM Tris, pH 10.0) and absorbance OD values at 560 nm were measured by microplate reader. Inhibition rate of the compound on HUVEC cell proliferation was measured to reflect VEGF-mediated proliferation inhibition effect of compound.
Inhibition rate of the compound was obtained by the following formula: […]
IC50 values were calculated by inhibition curves with four parameters fitting.

Compound | IC50 (Homo sapiens, primary HUVEC, 100 ng/mL VEGF, 48 h, SRB, read-out: Half inhibitory concentration for VEGF-induced HUVEC proliferation, IC50) [nM] | cell activity compared with positive control compound ABT869
Cc1ccc(F)c(NC(=O)Nc2ccc(-c3cccc4[nH]nc(N)c34)cc2)c1 [ABT869, reference compound] | 2.32 | –
Cc1ccc(NC(=O)c2cccc3cc(-c4cccc5[nH]nc(N)c45)ccc23)cc1 [Compound I-8, 6-(3-amino-1H-indazol-4-yl)-N-(p-methylphenyl)-1-naphthalenecarboxamide] | – | stronger than that of positive control compound ABT869
CCc1cccc(NC(=O)c2cccc3cc(-c4cccc5[nH]nc(N)c45)ccc23)c1 [Compound I-9, 6-(3-amino-1H-indazol-4-yl)-N-(3-ethylphenyl)-1-naphthalenecarboxamide] | – | stronger than that of positive control compound ABT869
Nc1n[nH]c2cccc(-c3ccc4c(C(=O)Nc5cc(F)cc(F)c5)cccc4c3)c12 [Compound I-14, 6-(3-amino-1H-indazol-4-yl)-N-(3,5-difluorophenyl)-1-naphthalenecarboxamide] | – | stronger than that of positive control compound ABT869
Cc1cc(NC(=O)c2cccc3cc(-c4cccc5[nH]nc(N)c45)ccc23)ccc1F [Compound I-21, 6-(3-amino-1H-indazol-4-yl)-N-(4-fluoro-3-methylphenyl)-1-naphthalenecarboxamide] | – | stronger than that of positive control compound ABT869
